What was measured:
[1] = target: T1, Biotinylated Human ACE2, His, Avitag protein (Homo sapiens, UniProt Q9BYF1); assay: Surface plasmon resonance (SPR) multiple cycle kinetics (MCK) direct binding; conditions: 25° C., 6.25 nM to 100 nM analyte, Langmuir (1:1) model
T1 construct: His; purchased ACROBiosystems AC2-H82E6
Protocol: 3. Affinity Determination by Surface Plasmon Resonance (SPR) Via Multiple Cycle Kinetics (MCK)
Binding of bicyclic peptides of the invention to Biotinylated Human ACE2, His, Avitag™ protein (ACROBiosystems, AC2-H82E6) was assessed by a MCK analysis. Experiments were performed at 25° C. on a Biacore T200 (Cytiva) running Biacore T200 Control software V2.0.1 and Evaluation software V3.0 (Cytiva). HBS-EP+(Cytiva) was used as running buffer as well as for ligand and analyte dilutions. Biotin CAPture reagent was loaded onto a Series S Sensor CAP Chip (Cytiva) followed by loading of biotinylated ACE2 at a flow rate of 2 μl/min. The surface was then allowed to stabilise.
MCK data was obtained using bicyclic peptides of the invention as analytes injected at a flow rate of 30 μl/min to minimise any potential mass transfer effects. A five point, two-fold dilution range from 6.25 nM to 100 nM of analyte was prepared in running buffer. For each concentration, the association phases were monitored for 250 seconds and the dissociation phase was measured for 450 seconds. Regeneration of the sensor chip surface was conducted between cycles using the CAP Chip standard regeneration buffer (Cytiva). Multiple repeats of a blank and of Bicycle were programmed into the kinetic run in order to check the stability of both the surface and analyte over the kinetic cycles. […]

[2] = target: T1, Biotinylated Human ACE2, His, Avitag protein; assay: Surface plasmon resonance (SPR) single cycle kinetics (SCK) direct binding; conditions: 25° C., Langmuir (1:1) model
Protocol: 2. Affinity Determination by Surface Plasmon Resonance (SPR) Via Single Cycle Kinetics (SCK)
Binding of bicyclic peptides of the invention to Biotinylated Human ACE2, His, Avitag™ protein (ACROBiosystems, AC2-H82E6) was assessed by a SCK analysis. Experiments were performed at 25° C. on a Biacore T200 (Cytiva) running Biacore T200 Control software V2.0.1 and Evaluation software V3.0 (Cytiva). HBS-EP+ (Cytiva) was used as running buffer as well as for ligand and analyte dilutions. Biotin CAPture reagent was loaded onto a Series S Sensor CAP Chip (Cytiva) followed by loading of the ACE2 protein at a flow rate of 2 μl/min. The surface was then allowed to stabilise.
SCK data was obtained using bicyclic peptides of the invention as analytes injected at a flow rate of 30 μl/min to minimise any potential mass transfer effects. A minimum four point 2-fold dilution of analyte based on the affinity of the bicyclic peptides of the invention in running buffer was used without regeneration between each concentration. The association phases were monitored for 100 seconds for each of the four injections of increasing concentrations of analyte and a single dissociation phase was measured for 400 seconds following the last injection of analyte. Regeneration of the sensor chip surface was conducted using the CAP Chip standard regeneration buffer (Cytiva).
The signal from the reference channel Fc1 (no ACE2 captured) was subtracted from that of Fc2, Fc3 and Fc4 to correct for bulk effect and differences in non-specific binding to a reference surface. The signal from each blank run (Fc2-ACE2 captured but no antigen) was subtracted to correct for differences in surface stability. The double referenced sensorgrams were fitted with the Langmuir (1:1) binding model (Equation 1a below) where the closeness of fit of the data to the model is evaluated using the Chi square value which describes the deviation between the experimental and fitted (observed and expected) curves (Equation 1b below).

T1 sequence (Q9BYF1 18-740 limits assumed): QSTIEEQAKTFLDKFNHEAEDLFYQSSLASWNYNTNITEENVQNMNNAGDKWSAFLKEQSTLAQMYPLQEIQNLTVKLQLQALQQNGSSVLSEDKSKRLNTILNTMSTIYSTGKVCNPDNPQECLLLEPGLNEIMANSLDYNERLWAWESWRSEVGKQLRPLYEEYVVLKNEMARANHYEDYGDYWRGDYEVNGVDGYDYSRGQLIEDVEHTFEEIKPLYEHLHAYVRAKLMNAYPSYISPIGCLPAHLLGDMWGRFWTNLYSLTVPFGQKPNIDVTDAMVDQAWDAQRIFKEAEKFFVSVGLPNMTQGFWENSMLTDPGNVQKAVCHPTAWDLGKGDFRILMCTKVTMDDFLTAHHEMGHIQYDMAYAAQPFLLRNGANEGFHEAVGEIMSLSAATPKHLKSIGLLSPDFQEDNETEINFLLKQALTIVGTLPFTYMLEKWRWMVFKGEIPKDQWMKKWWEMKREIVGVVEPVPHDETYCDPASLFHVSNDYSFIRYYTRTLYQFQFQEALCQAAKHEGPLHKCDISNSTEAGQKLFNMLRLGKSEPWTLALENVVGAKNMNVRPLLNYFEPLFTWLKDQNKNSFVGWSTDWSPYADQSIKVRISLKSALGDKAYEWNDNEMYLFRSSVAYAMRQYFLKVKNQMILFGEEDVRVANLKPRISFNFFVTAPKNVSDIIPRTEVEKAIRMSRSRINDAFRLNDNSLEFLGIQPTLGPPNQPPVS

Substance | Geometric Mean KD (nM) [1] | Geometric Mean KD (nM) [2]
CiNAVLCiiSWA[HArg][HyP]NSFCiii cyclised with TATA [BCY19024, Ac-(SEQ ID NO: 56)] | No sig. binding at top conc. tested | 
CiNAVLCiiSWA[HArg][dA]NSFCiii cyclised with TATA [BCY18256, Ac-(SEQ ID NO: 45)] |  | No sig. binding at top conc. tested
CiNDVLCiiSWA[HArg]ANSFCiii cyclised with TATA [BCY18659, Ac-(SEQ ID NO: 54)] |  | No sig. binding at top conc. tested
CiNEVLCiiSWA[HArg]ANSFCiii cyclised with TATA [BCY18783, Ac-(SEQ ID NO: 55)] |  | No sig. binding at top conc. tested
